Reference: patent US11219898B2, “Molecular separation by diffusion using an EWOD device” (Sharp Life Science (EU) Limited, priority 2019, dated 2022)

Test: Diffusion of fluorescein or calcein through a droplet interface bilayer in an AM-EWOD device
Type: physicochemical
Protocol: An investigation of the transport of aqueous phase elements between droplets suspended in a non-aqueous supporting medium is conducted. Phospholipid stabilized water in oil droplets are dispensed within an AM-EWOD device. Such droplets are used to produce droplet interface bilayers (DIBs) by the bringing together of individual droplets within the AM-EWOD device. DIBs are used to study diffusion of a solute across the bilayer membrane, as well as to study active transport through pores or ion channels formed in the DIB. In a first experiment, diffusion of fluorescein or calcein through a bilayer is investigated. Under conditions of neutral pH, calcein, a derivative of fluorescein, is generally more polar than fluorescein. […] Thus, fluorescein may more readily diffuse through a bilayer, whereas calcein may not. Three populations of droplets are dispensed within an AM-EWOD device. A first population contains buffer, a second population contains fluorescein at 100 μM concentration, and a third population contains calcein at 100 μM concentration. Droplets containing buffer are brought into contact respectively with droplets containing fluorescein or calcein, under control of the AM-EWOD device. Fluorescence intensity is determined at time t0, t1 (30 minutes) and t2 (60 minutes), with excitation wavelength 494 nm and emission wavelength 515 nm.

Fluorescence from the buffer containing droplet after DIB formation (after 60 minutes, 100 μM dye droplet, excitation 494 nm, emission 515 nm): no detectable fluorescence
Diffusion across the bilayer (summary of results): not
SMILES: O=C(O)CN(CC(=O)O)Cc1cc2c(cc1O)Oc1cc(O)c(CN(CC(=O)O)CC(=O)O)cc1C21OC(=O)c2ccccc21 [calcein]
